One series deals with human dermal fibroblasts. The series can be described thus: Collagen contraction test (in vitro skin cell toxicity screening). The format is cell-based. The note with it: for IC50: Fibroblast, collagen sheets containing human dermal fibroblasts, read-out: IC50 (concentration at which shrinkage is 50% of the control); for toxicity (in words): compared with other azones. Here is the method: Skin toxicity tests were performed using the so-called collagen contraction test (Ponec et al. Journal of Pharmaceutical Sciences Vol. 78, No. 9, September 1989 and Vol. 79, No. 4, April 1990). […] The concentration of the agent, at which the shrinkage is 50% of the control, is taken as the IC50, the "50% inhibition level".

The conditions of series [1]: sole anti-inflammatory agent, topical on human or animal skin, about 10 to 100%; cited from earlier work.
The nature of series [2]: Skin transport kinetics: nitroglycerin penetration through stratum corneum pretreated with 1-alkylazacycloheptan-2-ones. The format is in vitro ADME, human. As to conditions: compared with other 1-alkylazacycloheptan-2-ones. Here is the method: Human stratum corneum samples (18 mm in diameter) were obtained from fresh human skin (abdomen) by trypsinization. The stratum corneum samples were firstly prehydrated at 95% relative humidity (RH) over a saturated disodium hydrogen phosphate solution, then either submerged for 24 hours at 34° C. with 200 microliter of a 10% solution of an alkyl-aza-cycloheptan-one in propylene glycol by topical application, or directly used for a diffusion study.
The stratum corneum samples were subsequently sandwiched between silastic sheetings (127 micrometer thick silicone membranes, Dow Corning) which have been proven not to control the transport rate of the model drug used in the study, nitroglycerin. The thus obtained sandwiches were clamped in two-chamber flow-through diffusion cells and subjected to 24 hours diffusion experiments. The donor compartment having a volume of 16μl was flushed with a 0.05% nitroglycerin solution at a pumping rate of 35 ml/hr. […] Fractions of the acceptor fluid were collected at 1 hour intervals, and nitroglycerin was detected using a reversed phase HPLC procedure (chrom-sphere C18 100×30 mm column eluted at 22° C. (methanol:water=1:1) at a 1.1 ml/min flow rate (Spectroflow 400, Kratos.). The absorbance at 201 nm of the effluent was monitored on Waters 450 var. wavelength detector).

Series [3] can be described thus: Differential thermal analysis (DTA) of pretreated stratum corneum. Further details: species or system human. The note with it: 24 h pretreatment in enhancer solution. How it is done:
For differential thermal analysis human stratum corneum samples were pretreated (after prehydration) by submersion in the in test 1 described enhancer solutions for 24 hours, using untreated prehydrated stratum corneum samples as controls. Differential thermal analysis of ca. 20 mg samples was then performed on a differential scanning calorimeter (Maple).

Series [4] is described as follows: Freeze-fracture electron microscopy of pretreated stratum corneum. The note with it: 24 h pretreatment with solution in propylene glycol. How it is done: For freeze-fracture electron microscopy stratum corneum samples were pretreated during 24 hours with solutions of azacycloheptanones in propylene glycol by applying about 200 microliter per cm^2 of the solution on the apical surface. Samples were then snapfrozen in melting nitrogen (method according to Umrath, J. Microsc. 101: 103 (1974)), cross-fractured (Holman et al., J. Invest. Dermatol, 94: 332 (1990) )in a Balzers Freeze Fracture apparatus (Balzers 400 BAF) at high vacuum. The fracture surfaces were then shadowed with Pt and overcast with a layer of carbon. Upon thawing, the samples were cleaned to obtain the surface replicas. These were scooped up on copper grids and examined in a transmission electron microscope (Philips 401, operated at 80 kV).

As for `CCCCCCCCCCCCN1CCCCCC1=O` [C12, 1-dodecylazacycloheptan-2-one, reference compound], the IC50 with human dermal fibroblasts is 240 µM. Moreover, the “anti-inflammatory action, topical (in words)” value in series [1] was “capable of temporarily reducing the signs and symptoms of inflammation”.
As to `CCCCCCCC/C=C\CCCCCCCCN1CCCCCC1=O` [C18, 1-oleylazacycloheptan-2-one], the entries for the “enhancement of nitroglycerin transport / percutaneous absorption (in words)” value in series [2] and in series [2] (listed as oleyl derivative) were “more potent enhancer for percutaneous absorption than the 1-alkylazacycloheptan-2-ones according to the prior art” and “by far the most potent enhancer with respect to nitroglycerin transport”, respectively. For the same compound, the “influence on gel-liquid transition temperature and transition enthalpy (in words)” value in series [3] was “strongly influences both the gel-liquid transition temperature of the intercellular lipids, and the corresponding transition enthalpy”. Besides, the “transition enthalpy of the intercellular lipids (gel-liquid transition)” value in series [3] (control 7 J.g-1) is 3.3 J/g. Further, in series [4], the “electron microscopic findings in stratum corneum (in words)” value was “penetrates deeply into the stratum corneum and induces the separation of a non-lamellar phase”. Besides, in the series with human dermal fibroblasts, the IC50 stood at 800 µM. The “toxicity (in words)” value with human dermal fibroblasts (listed as 1-oleyl-azacyclo-heptan-2-one) was “moderately toxic”; in the series with human dermal fibroblasts (listed as 1-oleylazacycloheptan-2-one), “less toxic than the 1-dodecylazacycloheptan-2-one”; with human dermal fibroblasts (listed as oleyl azone), “almost the least toxic azone among the effective enhancers (from C10 up to C18), and less toxic than C12 azone”.
